From ChEMBL document CHEMBL3286222, “Synthesis and antiproliferative studies of 5-aryl-2-(3-thienylamino)-1,3,4-thiadiazoles” (Bioorg Med Chem Lett, 2014) come the findings set out here.

Experiment [1] can be described thus: Cytotoxicity against human U373 cells assessed as growth inhibition after 72 hrs by MTT colorimetric assay. It is filed as functional, cell-based, U-373MG ATCC. To be noted: U373 MG. For orientation: Tetrazolium dyes change colour on reduction, which living cells bring about.
Experiment [2] deals with MCF7. The experiment is described as follows: Cytotoxicity against human MCF7 cells assessed as growth inhibition after 72 hrs by MTT colorimetric assay. It is filed as functional, cell-based. To be noted: MCF7, 72 h.
Experiment [3] relates to SK-MEL-28. Put plainly: Cytotoxicity against human SK-MEL-28 cells assessed as growth inhibition after 72 hrs by MTT colorimetric assay. It is filed as functional, cell-based. To be noted: SK-MEL-28, 72 h.
Experiment [4] is described as follows: Cytotoxicity against human Hs683 cells assessed as cell viability at 10 uM after 72 hrs by MTT colorimetric assay. The settings on record: Hs 683, 72 h, read-out: Activity. It is filed as functional.
The subject of experiment [5] is A549. The experiment is described as follows: Cytotoxicity against human A549 cells assessed as cell viability at 5 uM after 72 hrs by MTT colorimetric assay. The settings on record: A549, 72 h, read-out: Activity. It is filed as functional.
The nature of experiment [6]: Cytotoxicity against mouse B16F10 cells assessed as cell viability at 1 uM after 72 hrs by MTT colorimetric assay. It is filed as functional. The settings on record: B16-F10, 72 h, read-out: Activity.

Consider `COc1ccc(-c2cc(Nc3nnc(-c4ccc(C)cc4)s3)cs2)cc1`, for which the 50% inhibitory concentration (IC50) in experiment [1], in experiment [2] and in experiment [3] was > 100 µM each time. The viability at 10 µM in experiment [4] is < 50%. Besides, the viability at 5 µM in experiment [5] was < 50%. The viability at 1 µM in experiment [6] is < 50%.

Broadly, the IC50 is the concentration needed to halve the response being measured.
